Measurements taken from patent US20260174770A1, “COMBINATION THERAPY FOR TREATING CANCER” (SCORPION THERAPEUTICS, INC., priority 2022, published 2026).
“Also recorded” adds a separate entry of the source.

Columns and labels:
[1] = tested on: BT20 cells; experiment: Cell viability (CellTiterGlo) in BT20 cells; format: cell-based; conditions: Homo sapiens, BT-20, read-out: Compound 1 CTGlo GMean IC50 (95% CI); BT20 (H1047R + P539R), 72 hours
Description: (§1) Cell viability was measured using CellTiterGlo (Promega #G9243). Indicated cell lines were seeded according to Supplementary Table S3 in 50 μL of media in 384 well plates, with 72 hours of treatment at 37° C. with 5% CO2.

[2] = tested on: CAL148 cells; experiment: Cell viability (CellTiterGlo) in CAL148 cells; format: cell-based; conditions: Homo sapiens, CAL-148, read-out: Compound 1 CTGlo GMean IC50 (95% CI); CAL148 (H1047R + D350N), 72 hours
Description: as §1

[3] = tested on: SKBR3 cells; experiment: Cell viability (CellTiterGlo) in SKBR3 cells; format: cell-based; conditions: Homo sapiens, SK-BR-3, read-out: Compound 1 CTGlo GMean IC50 (95% CI); SKBR3 (WT), 72 hours
Description: as §1

[4] = tested on: PIK3CA-mutant, ER+/HER2+ PDX tumor; experiment: PDX model, combination with palbociclib; format: in vivo; conditions: palbociclib 50 mg/kg QD
[5] = tested on: PIK3CA H1047R, ER+ PDX tumor
Description: (§2) All animal handling and treatment procedures were performed according to the approved Institutional Animal Care and Use Committee guidelines following the Association for Assessment and Accreditation of Laboratory Animal Care guidance. Cell line xenografts were performed in BALB/c nude mice except for the T47D model that used NSG mice implanted with 17-beta estradiol tablets (0.5 mg, 90-day release). PK/PD studies with xenograft tumors were established using standard protocols. PDX models were performed by XenoSTART (San Antonio, TX).

[6] = tested on: pAKT (S473), CAL148 cells (PI3Kα H1047R + D350N); experiment: pAKT (S473) HTRF in CAL148 cells; format: cell-based; conditions: Homo sapiens, CAL-148, read-out: Alpelisib pAKT HTRF GMean GI50 (95% CI), 1 hour
Description: (§3) A 384-well phospho-AKT (S473) HTRF (PerkinElmer #64AKSPEH) assay was used for target engagement. Each well was seeded with cell numbers indicated in Supplementary Table S3 in a volume of 12.5 uL in phenol red-free media and then treated for 1 hour at 37° C., before reading on a PHERAstar plate reader.

[7] = tested on: pAKT (S473), CAL33 cells (PI3Kα H1047R); experiment: pAKT (S473) HTRF in CAL33 cells; format: cell-based; conditions: Homo sapiens, CAL-33, read-out: Alpelisib pAKT HTRF GMean GI50 (95% CI), 1 hour
Description: as §3

[8] = tested on: pAKT (S473), DETROIT562 cells (PI3Kα H1047R); experiment: pAKT (S473) HTRF in DETROIT562 cells; format: cell-based; conditions: Homo sapiens, Detroit 562, read-out: Alpelisib pAKT HTRF GMean GI50 (95% CI), 1 hour
Description: as §3

[9] = tested on: pAKT (S473), HCC1954 cells (PI3Kα H1047R); experiment: pAKT (S473) HTRF in HCC1954 cells; format: cell-based; conditions: Homo sapiens, read-out: Alpelisib pAKT HTRF GMean GI50 (95% CI), 1 hour
Description: as §3

[10] = tested on: pAKT (S473), NCIH1048 cells (PI3Kα H1047R + K111R); experiment: pAKT (S473) HTRF in NCIH1048 cells; format: cell-based; conditions: Homo sapiens, NCI-H1048, read-out: Alpelisib pAKT HTRF GMean GI50 (95% CI), 1 hour
Description: as §3

[11] = tested on: primary human subcutaneous adipocytes (WT PI3Kα); experiment: Human adipocyte 3H-2-deoxyglucose uptake; format: cell-based
Description: Primary human subcutaneous adipocytes were treated with test compound or vehicle for 1 hour followed by addition of 10 nM insulin and ^3H-2-deoxyglucose (Zen Bio Durham, NC USA, assay #CA-25 Lot #SL0071). Cytochalasin B treatment controlled for non-specific glucose uptake. Corrected counts per minute was determined using a scintillation counter.

[12] = tested on: Cal33 (H1047R PI3Kα) xenograft tumors; conditions: mouse, in vivo
Description: as §2

[13] = Juric et al. 2018; cited from earlier work

| Structure (SMILES) | IC50 [1] [nM] | IC50 [2] [nM] | IC50 [3] [nM] | tumor growth / tumor volume ([4]; Compound 1 100 mg/kg PO QD) | T/C ([4]; Compound 1 100 mg/kg QD) [%] | tumor growth / tumor volume ([5]; Compound 1 100 mg/kg PO QD, fulvestrant QW, 100 mg/kg) | T/C ([5]; Compound 1 100 mg/kg QD, fulvestrant 5 mg/kg QW) [%] | GI50 [6] [nM] | GI50 [7] [nM] | GI50 [8] [nM] | GI50 [9] [nM] | GI50 [10] [nM] | Emax ([11]; Adipocyte, 10 nM insulin, primary human adipocytes, read-out: maximum effect (Emax) for glucose uptake) [%] | inhibition of glucose uptake ([11]; at 10 μM) | serum insulin [12] | Δ Insulin, one-hour post dose [12] | exposure of the maximum approved human dose [13] |
| --- | --- | --- | --- | --- | --- | --- | --- | --- | --- | --- | --- | --- | --- | --- | --- | --- | --- |
| Cc1c([C@@H](NC(=O)Nc2cnc(N)nc2)C(F)(F)F)oc2c(F)cc(F)cc12 (single isomer, unassigned) [Compound 1] | 654 | 705 | 1560 | decreases tumor volume; also recorded: Strong tumor growth inhibition and stasis | 9 | decreases tumor volume; also recorded: Strong tumor growth inhibition and stasis | 5 | – | – | – | – | – | – | – | – | – | – |
| Cc1nc(NC(=O)N2CCC[C@H]2C(N)=O)sc1-c1ccnc(C(C)(C)C(F)(F)F)c1 [Alpelisib, alpelisib, reference compound] | – | – | – | – | – | – | – | 268 | 71 | 125 | 256 | 28 | 88 | nearly complete inhibition | raised serum insulin | +1.07^NS ng/mL | ~33,000 ng*hr/mL |
